Assay: Evaluated for critical micellular concentration (CMC) by dye solubilization method

Row | CMC [mM] | Structure (SMILES)
1 | 18 | CC(CCC(=O)NCCS(=O)(=O)O)C1CC[C@H]2[C@@H]3[C@@H](O)CC4C[C@H](O)CCC4(C)[C@H]3CCC12C (stereo partly drawn)
2 | 14.5 | CC(C1CC1C(=O)NCCS(=O)(=O)O)C1CC[C@H]2[C@@H]3[C@@H](O)CC4C[C@H](O)CCC4(C)[C@H]3CCC12C (stereo partly drawn)

Row | Structure (SMILES) | CMC [mM]
3 | CC(C1CC1C(=O)O)C1CC[C@H]2[C@@H]3[C@@H](O)CC4C[C@H](O)CCC4(C)[C@H]3CCC12C (stereo partly drawn) | 15.5

Reference: ChEMBL document CHEMBL1122893, “Bile acids with cyclopropane-containing side chain. 2. Synthesis and properties of 3 alpha,7 beta-dihydroxy-22,23-methylene-5 beta-cholan-24-oic acid (2-sulfoethyl)amide” (J Med Chem, 1985)
